Source: patent US20090117089A1, “GLYCOLIPIDS AND ANALOGUES THEREOF AS ANTIGENS FOR NK T CELLS” (The Rockefeller University, priority 2005, published 2009)
Entries after “also recorded” stand apart in the source; their conditions may differ.

Experiments:
[1] = tested on: CD1d reactive T cell hybridomas with an invariant Vα14i T cell antigen receptor; assay: 1.2 hybridoma assay (IL-2 release by ELISA); format: cell-based, mouse; conditions: for IL-2 secretion: CD1d coated plates, Sphingomonas glycolipids and analogues; for IL-2 production (relative activity of fatty acyl chain analogs): 0.0001-1 μg/ml, CD1d transfected A20 cells
Description: As a measure of T cell activation, IL-2 release into the tissue culture medium was measured after 16 hours culture by an ELISA assay.
As a measure of T cell activation, IL-2 and IFN-γ release into the tissue culture medium was measured after 16 hours culture by an ELISA assay.

[2] = tested on: Vα24i human NKT cell line; assay: In vitro cytokine secretion assay using human NKT cell lines; format: cell-based; conditions: for IFN-γ secretion / IL-4 secretion: CD14+ immature dendritic cells, 10 μg/ml glycolipid (1-10 μg/ml for 3-O-sulfo-α-galactosylceramide), 10 IU/ml IL-2
Description: (§1) Human NKT cell lines, expressing the Vα24i T cell receptor as well as CD161, were generated as follows: Anti-CD161 monoclonal antibodies, and anti-CD14 monoclonal antibodies, each coupled to magnetic beads (Miltenyi biotec, Auburn, Calif.), were used sequentially to isolate CD161^+ cells and CD14^+ cells from leukopaks. Immature dendritic cells were generated from the CD14^+ cells after a two-day incubation in the presence of 300 U/ml GM-CSF (R&D systems, Minneapolis, Minn.) and 100 U/ml IL-4 (R&D systems, Minneapolis, Minn.). Following irradiation with 2000 rads, the immature dendritic cells were co-cultured with syngeneic CD161^+ cells in the presence of 100 ng/ml of alpha-galactosylceramide and 10 IU/ml of IL-2 (Invitrogen, Carlsbad Calif.) for 10 to 14 days. After stimulating the CD161^+ cells a second time with alpha-galactosylceramide-pulsed, irradiated immature dendritic cells, NKT cell lines were shown by flow cytometry to express both CD161^+ and V 24i TCR (99% purity).
(§2) IFN-γ and IL-4 secretion by the Vα 24i human NKT cell line was determined by ELISA (BD Pharmingen, San Diego, Calif.) after culture for 16 hours. For these assays, 1×10^5 Vα 24i human NKT cells were co-cultured with 4×10^5 irradiated, immature CD14^+ dendritic cells, in the presence of the glycolipid compounds at 10 μg/ml in a 96-well flat-bottom plate.
as §1, with “of 100-0.1” for “of 100”
In some cases, Hela cells were transfected with a human CD1d construct [Xing et al. 2005. Bioorg Med Chem 13: 2907], and were used to present the glycolipids, via pulsing with the respective compounds at the indicated concentration, to NKT lines.
as §2, with “IFN-γ” for “IFN-γ and IL-4”

[3] = tested on: human CD161+ NK+NKT cells; assay: Cytokine secretion by human CD161+ NK+NKT cells in the presence of CD14+ DCs; format: cell-based
Description: Human Vα24i NKT cells response to synthetic Sphingomonas and sulfatide glycolipids, in terms of IFN-γ (a) and IL-4 (b) release after culture with 4×10^5 autologous immature CD14+ dendritic cells pulsed with the indicated glycolipid antigens at 10 μg/ml. Negative controls included similar numbers of NKT cells and dendritic cells, cultured without added glycolipid. Data represent mean±S.D. of duplicate well; (c) in vitro INF-γ secretion by human CD161^+ NK+NKT cells (2×10^5/well) in the presence of CD14^+ DCs (4×10^5/well) and 20 μg/ml of various glycolipids; (d) in vitro IL-4 secretion by human CD161^+ NK+NKT cells (2×10^5/well) in the presence of CD14^+ DCs (4×10^5/well) and 20 μg/ml of various glycolipids.

[4] = tested on: Vα24i human NKT cell line; assay: In vitro cytokine secretion assay using human NKT cell lines; format: cell-based; conditions: CD14+ DCs; 100-0.1 ng/mL; all doses
spleen CD11c+ DCs = assay: DC maturation in vivo (surface markers, flow cytometry); design: species or system mouse; conditions: mouse, in vivo
Description: 2×10^7 irradiated J558-Ld^− cells, were injected i.v. or s.c. into Balb/c mice with or without α-Gal Cer as a DC maturation stimulus. In some experiments we compared α-Gal Cer to agonistic anti-CD40 mAb (1C10, 25 μg i.p.) or the toll like receptor ligands, poly IC ([…], Invivogen) or lipopolysaccharide (20 μgm, Sigma). The mice had been given CFSE-labeled PICTL CD8^+ T cells i.v. 1 d earlier, or were naive animals. In some experiments, mice were sacrificed 3 d later, and T cell division and activation in spleen were analyzed by flow cytometry. Additionally, 7 d or 2 months later, 5×10^6 live J558 tumor cells were inoculated subcutaneously. 5×10^6 Meth A fibrosarcoma was used as a control tumor for challenge. Tumor cell growth was measured with calipers every other day. Mice were scored positive for tumor as soon as tumors became palpable and grew progressively. Mice were euthanized when tumor size exceeded 400 mm^2.
T-cell division, phagocytosis of CFSE-labeled tumor cells and acquisition of cell surface-activation markers were determined by flow cytometry. Briefly, spleens were harvested and low-density splenocytes were stained with CD11c-APC and CD8α-PE, CD11b-PE, B220-PE or CD4-PE for the up-take examination. For in vivo proliferation of P1CTL T-cells, spleens were harvested and the splenocytes suspension was staining with CD8α-Cy, Vα8α-PE, CD25-PE, CD62L-PE. For intracellular cytokine staining, splenocytes were stimulated in vitro with 1 µg/ml P1A peptide in 5 μg/ml brefeldin A (Sigma-Aldrich) at 37° C. for 4 hrs. The cells were first stained with CD8α-Cy-Chrome™, fixed and permeabilized with cytofix-cytoperm buffer (BD Biosciences), and stained with PE conjugated mAbs to IL-2 or IFN-γ.
Flow cytometry. Acquisition of cell surface-activation markers was determined by flow cytometry. […] Spleen CD11c+ DCs were isolated using anti-CD11c magnetic beads and stained with CD11c-FITC, CD8α− allophycocyanin, and PE-Conjugated I-Ad, CD40, CD80, CD86, CD119, B7-H1 and B7-DC. We used a FACSCalibur™ with data analysis in FlowJo (Tree Star).

2-Hexacosylamino-1-O-(3-O-sulfo-α-D-galactopyranosyl)-D-ribo-1,3,4-octadecantriol, Sodium Salt [Compound 4]
biological activity in the 1.2 hybridoma assay (IL-2 secretion) [1]: caused significant IL-2 secretion | activity relative to αGalCer (dose response curves, IL-2) ([1]; data not shown): somewhat less active than αGalCer | IL-2 release from the hybridomas ([1]; glycolipid at 10 μg/ml, 16 hours culture): stimulated significant IL-2 release | IFN-γ secretion [2]: approximately half that of α-GalCer | IL-4 secretion [2]: approximately half that of α-GalCer | IL-4 secretion by human NKT cells ([3]; glycolipid presented by CD14+ DCs, 10-20 μg/mL): efficiently stimulated IL-4 and IFN-γ secretion | interferon-γ secretion by human NKT cells ([3]; glycolipid presented by CD14+ DCs, 10-20 μg/mL, compared to α-GalCer, Sodium Salt): superior; also recorded: efficiently stimulated IL-4 and IFN-γ secretion

3-O-sulfo-β-galactosylceramide [Compound 10]
IFN-γ secretion [2]: elicit both IFN-γ and IL-4 production | IL-4 secretion [2]: elicit both IFN-γ and IL-4 production | affinity for NKT lymphocytes [3]: minimal to no affinity for NKT lymphocytes

CCCCCCCCCCCCCCC[C@@H](O)[C@H](COC1OC(C(=O)O)C(O)C(O)C1O)NC(=O)CCCCCCCCCCCCC (some centres unmarked) [Compound 5]
reactivity of human Vα24i NKT cells [2]: conserved

CCCCCCCCCCCCCCC[C@@H](O)[C@H](COC1OC(C(=O)O)C(O)C(O)C1O)NC(=O)[C@@H](O)CCCCCCCCCCCC (some centres unmarked) [Compound 6]
reactivity of human Vα24i NKT cells [2]: conserved

CCCCCCCCCCCCCCC[C@@H](O)[C@H](COC1OC(CO)C(O)C(O)C1O)NC(=O)CCCCCCCCCCCCC (some centres unmarked) [Compound 7]
IL-2 secretion [1]: greater IL-2 secretion

CCCCCCCCCCCCCCC[C@@H](O)[C@H](COC1OC(CO)C(O)C(O)C1O)NC(=O)[C@@H](O)CCCCCCCCCCCC (some centres unmarked) [Compound 8]
IL-2 secretion [1]: less able to activate IL-2 secretion when compared with 5

CCCCCCCCCCCCCC[C@@H](O)[C@@H](O)[C@H](COC1OC(CO)C(O)C(O)C1O)NC(=O)CCCCCc1ccccc1 (some centres unmarked) [Compound 83]
IL-2 production (relative activity of fatty acyl chain analogs) [1]: significant increase of IL-2 production | selectivity IFN-γ versus IL-4 production [2]: high ratio of IFN-γ/IL-4 activity | IFN-γ secretion compared to KRN [4]: consistently stimulating greater IFN-γ secretion

CCCCCCCCCCCCCC[C@@H](O)[C@@H](O)[C@H](COC1OC(CO)C(O)C(O)C1O)NC(=O)CCCCCCCc1ccccc1 (some centres unmarked) [Compound 84]
IL-2 production (relative activity of fatty acyl chain analogs) [1]: significant increase of IL-2 production | IFN-γ secretion compared to KRN [4]: consistently stimulating greater IFN-γ secretion

poly IC
phenotypic changes of DC maturation (CD40, CD86, MHC class II, B7-H1, B7-DC up, CD119 down) (spleen CD11c+ DCs): induced similar phenotypic changes of maturation
